# Experimental data: ChEMBL document CHEMBL3885861, “Open TG-GATES”
# Organism: Rattus norvegicus
# Test: Open TG-GATES - Regimen: Daily Repeat
# Assay type: toxicity, organism-based, Sprague-Dawley
# Set-up: regimen Daily Repeat, gender Male, age 6 weeks
# Settings: in vivo, po, 1000 mg/kg, route gavage, dose level High; for APTT / Bas / Eos / Fbg / Hb / Ht / Lym / MCH / MCHC / MCV / Mono / Neu / PT / Plat / RBC / Ret / WBC: tissue Blood; for KIDNEY_L / KIDNEY_R / KIDNEY_TOTAL: tissue Kidney; for LIVER: tissue Liver; for A/G / ALP / ALT / AST / BUN / CRE / Ca / Cl / DBIL / GLC / IP / K / LDH / Na / PL / RALB / TBIL / TC / TG / TP / gamma-GTP: tissue Plasma
structure (smiles),measurement,setting,value
CC[C@@H](CO)NCCN[C@@H](CC)CO [ETHAMBUTOL],TERMINAL_BW,"72 h, time 3 day",233.6 g
same,APTT,"72 h, time 3 day",19.9 s
same,Bas,"72 h, time 3 day",0%
same,Eos,"72 h, time 3 day",0.8%
same,Fbg,"72 h, time 3 day",303.8 mg/dL
same,Hb,"72 h, time 3 day",13.5 g/dL
same,Ht,"72 h, time 3 day",38.6%
same,Lym,"72 h, time 3 day",77.8%
same,MCH,"72 h, time 3 day",21.4 pg
same,MCHC,"72 h, time 3 day",35%
same,MCV,"72 h, time 3 day",61 fL
same,Mono,"72 h, time 3 day",3.2%
same,Neu,"72 h, time 3 day",16.6%
same,PT,"72 h, time 3 day",16.3 s
same,Plat,"72 h, time 3 day",122.5 x10_4/uL
same,RBC,"72 h, time 3 day",633.2 x10_4/ul
same,Ret,"72 h, time 3 day",4.8%
same,WBC,"72 h, time 3 day",84.1 x10_2/uL
same,KIDNEY_L,"72 h, time 3 day",1 g
same,KIDNEY_R,"72 h, time 3 day",1.1 g
same,KIDNEY_TOTAL,"72 h, time 3 day",2.1 g
same,LIVER,"72 h, time 3 day",12.7 g
same,A/G,"72 h, time 3 day",1.2
same,ALP,"72 h, time 3 day",1656 IU/L
same,ALT,"72 h, time 3 day",49 IU/L
same,AST,"72 h, time 3 day",88.2 IU/L
same,BUN,"72 h, time 3 day",21 mg/dL
same,CRE,"72 h, time 3 day",0.2 mg/dL
same,Ca,"72 h, time 3 day",10.6 mg/dL
same,Cl,"72 h, time 3 day",108 meq/L
same,DBIL,"72 h, time 3 day",0.002 mg/dL
same,GLC,"72 h, time 3 day",177.8 mg/dL
same,IP,"72 h, time 3 day",8.1 mg/dL
same,K,"72 h, time 3 day",4 meq/L
same,LDH,"72 h, time 3 day",160.8 IU/L
same,Na,"72 h, time 3 day",140 meq/L
same,PL,"72 h, time 3 day",163.8 mg/dL
same,RALB,"72 h, time 3 day",3 g/dL
same,TBIL,"72 h, time 3 day",0.026 mg/dL
same,TC,"72 h, time 3 day",99.6 mg/dL
same,TG,"72 h, time 3 day",41.2 mg/dL
same,TP,"72 h, time 3 day",5.5 g/dL
same,gamma-GTP,"72 h, time 3 day",1.6 IU/L
same,TERMINAL_BW,"[…], time 7 day",220.6 g
same,TERMINAL_BW,"[…], time 14 day",208.8 g
same,TERMINAL_BW,"[…], time 28 day",151.9 g
same,APTT,"[…], time 7 day",19.7 s
same,Bas,"[…], time 7 day",0%
same,Eos,"[…], time 7 day",0.8%
same,Fbg,"[…], time 7 day",167.4 mg/dL
same,Hb,"[…], time 7 day",16.1 g/dL
same,Ht,"[…], time 7 day",46.3%
same,Lym,"[…], time 7 day",73.8%
same,MCH,"[…], time 7 day",20.8 pg
same,MCHC,"[…], time 7 day",34.7%
same,MCV,"[…], time 7 day",59.8 fL
same,Mono,"[…], time 7 day",3.4%
same,Neu,"[…], time 7 day",19.4%
same,PT,"[…], time 7 day",19.6 s
same,Plat,"[…], time 7 day",116.6 x10_4/uL
same,RBC,"[…], time 7 day",774.8 x10_4/ul
same,Ret,"[…], time 7 day",2%
same,WBC,"[…], time 7 day",71 x10_2/uL
same,APTT,"[…], time 14 day",21.5 s
same,Bas,"[…], time 14 day",0%
same,Eos,"[…], time 14 day",1.2%
same,Fbg,"[…], time 14 day",228 mg/dL
same,Hb,"[…], time 14 day",15.5 g/dL
same,Ht,"[…], time 14 day",44.6%
same,Lym,"[…], time 14 day",83.2%
same,MCH,"[…], time 14 day",19.4 pg
same,MCHC,"[…], time 14 day",34.8%
same,MCV,"[…], time 14 day",55.6 fL
same,Mono,"[…], time 14 day",2.2%
same,Neu,"[…], time 14 day",12.4%
same,PT,"[…], time 14 day",18.1 s
same,Plat,"[…], time 14 day",126 x10_4/uL
same,RBC,"[…], time 14 day",800.4 x10_4/ul
same,Ret,"[…], time 14 day",0.5%
same,WBC,"[…], time 14 day",95.8 x10_2/uL
same,APTT,"[…], time 28 day",27.6 s
same,Bas,"[…], time 28 day",0%
same,Eos,"[…], time 28 day",0.3%
same,Fbg,"[…], time 28 day",252 mg/dL
same,Hb,"[…], time 28 day",17.2 g/dL
same,Ht,"[…], time 28 day",49.9%
same,Lym,"[…], time 28 day",41.3%
same,MCH,"[…], time 28 day",18 pg
same,MCHC,"[…], time 28 day",34.6%
same,MCV,"[…], time 28 day",52 fL
same,Mono,"[…], time 28 day",8.3%
same,Neu,"[…], time 28 day",46.7%
same,PT,"[…], time 28 day",19.9 s
same,Plat,"[…], time 28 day",105.7 x10_4/uL
same,RBC,"[…], time 28 day",960 x10_4/ul
same,Ret,"[…], time 28 day",0.7%
same,WBC,"[…], time 28 day",102.9 x10_2/uL
same,KIDNEY_L,"[…], time 7 day",1 g
same,KIDNEY_R,"[…], time 7 day",1.1 g
same,KIDNEY_TOTAL,"[…], time 7 day",2.1 g
same,KIDNEY_L,"[…], time 14 day",1 g
same,KIDNEY_R,"[…], time 14 day",1 g
same,KIDNEY_TOTAL,"[…], time 14 day",2 g
same,KIDNEY_L,"[…], time 28 day",0.9 g
same,KIDNEY_R,"[…], time 28 day",0.9 g
same,KIDNEY_TOTAL,"[…], time 28 day",1.8 g
same,LIVER,"[…], time 7 day",10.6 g
same,LIVER,"[…], time 14 day",9.2 g
same,LIVER,"[…], time 28 day",6.7 g
same,A/G,"[…], time 7 day",1.2
same,ALP,"[…], time 7 day",1664.8 IU/L
same,ALT,"[…], time 7 day",76.6 IU/L
same,AST,"[…], time 7 day",165.4 IU/L
same,BUN,"[…], time 7 day",22.2 mg/dL
same,CRE,"[…], time 7 day",0.2 mg/dL
same,Ca,"[…], time 7 day",9.3 mg/dL
same,Cl,"[…], time 7 day",107.4 meq/L
same,DBIL,"[…], time 7 day",0.3 mg/dL
same,GLC,"[…], time 7 day",145.2 mg/dL
same,IP,"[…], time 7 day",8.3 mg/dL
same,K,"[…], time 7 day",4.6 meq/L
same,LDH,"[…], time 7 day",334 IU/L
same,Na,"[…], time 7 day",138.8 meq/L
same,PL,"[…], time 7 day",108 mg/dL
same,RALB,"[…], time 7 day",2.4 g/dL
same,TBIL,"[…], time 7 day",0.3 mg/dL
same,TC,"[…], time 7 day",59.6 mg/dL
same,TG,"[…], time 7 day",15.6 mg/dL
same,TP,"[…], time 7 day",4.3 g/dL
same,gamma-GTP,"[…], time 7 day",1.4 IU/L
same,A/G,"[…], time 14 day",1.1
same,ALP,"[…], time 14 day",1208.4 IU/L
same,ALT,"[…], time 14 day",53 IU/L
same,AST,"[…], time 14 day",108.6 IU/L
same,BUN,"[…], time 14 day",21.8 mg/dL
same,CRE,"[…], time 14 day",0.2 mg/dL
same,Ca,"[…], time 14 day",9.4 mg/dL
same,Cl,"[…], time 14 day",108.6 meq/L
same,DBIL,"[…], time 14 day",0.068 mg/dL
same,GLC,"[…], time 14 day",155.2 mg/dL
same,IP,"[…], time 14 day",6.8 mg/dL
same,K,"[…], time 14 day",4.1 meq/L
same,LDH,"[…], time 14 day",178.8 IU/L
same,Na,"[…], time 14 day",139.4 meq/L
same,PL,"[…], time 14 day",112.6 mg/dL
same,RALB,"[…], time 14 day",2.4 g/dL
same,TBIL,"[…], time 14 day",0.08 mg/dL
same,TC,"[…], time 14 day",61.6 mg/dL
same,TG,"[…], time 14 day",19 mg/dL
same,TP,"[…], time 14 day",4.6 g/dL
same,gamma-GTP,"[…], time 14 day",3.6 IU/L
same,A/G,"[…], time 28 day",1.1
same,ALP,"[…], time 28 day",564 IU/L
same,ALT,"[…], time 28 day",45.3 IU/L
same,AST,"[…], time 28 day",342 IU/L
same,BUN,"[…], time 28 day",34 mg/dL
same,CRE,"[…], time 28 day",0.2 mg/dL
same,Ca,"[…], time 28 day",9.8 mg/dL
same,Cl,"[…], time 28 day",116.7 meq/L
same,DBIL,"[…], time 28 day",0.1 mg/dL
same,GLC,"[…], time 28 day",321.7 mg/dL
same,IP,"[…], time 28 day",10.9 mg/dL
same,K,"[…], time 28 day",4.3 meq/L
same,LDH,"[…], time 28 day",600.7 IU/L
same,Na,"[…], time 28 day",148 meq/L
same,PL,"[…], time 28 day",102 mg/dL
same,RALB,"[…], time 28 day",2.9 g/dL
same,TBIL,"[…], time 28 day",0.2 mg/dL
same,TC,"[…], time 28 day",60 mg/dL
same,TG,"[…], time 28 day",22.3 mg/dL
same,TP,"[…], time 28 day",5.5 g/dL
same,gamma-GTP,"[…], time 28 day",5.7 IU/L
